Source: US20240425478A1, “CYCLOPENTYLPYRAZOLE CDK2 INHIBITORS” (Genentech, Inc., priority 2021, published 2024)
Where two headings read alike, the source gives them in different places.

How the values were obtained:
[1] = molecular target: T1, Cyclin Dependent Kinase 1/Cyclin A2 (CDK1-cycA2) (Homo sapiens, UniProt P06493); assay: CDK1-cycA2 TR-FRET (Lance) enzyme assay; type: biochemical; settings: for Ki: enzymatic assay
T1 construct: purchased ProQinase 0134-0054-1
Method: (§1) Cyclin Dependent Kinase 1/Cyclin A2 (CDK1-cycA2), Cyclin Dependent Kinase 2/Cyclin E1 (CDK2-cycE1), Cyclin Dependent Kinase 4/Cyclin D3 (CDK4-cycD3) and Cyclin Dependent Kinase 6/Cyclin D3 (CDK6-cycD3) enzyme assays were carried out as described below.
(1) CDK1-cycA2 TR-FRET (Lance®)
(§2) An Echo acoustic dispenser is used to create dose responses of compound dissolved in DMSO into a 384-well microplate. A 5 μL volume of enzyme mix is added to the well, and pre-incubated with compound for 30 minutes. […] Buffer conditions are 50 mM HEPES, pH 7.5, 10 mM MgCl2, 2 mM TCEP, 0.05% BGG and 0.01% Brij 35. The reaction is quenched with 5 μL of EDTA in detection buffer (15 mM [EDTA final]). Finally, a 5 μL TR-FRET detection mix is added to the quenched reaction, which includes Europium labeled anti-phospho-4E-BP1. […] Signal is a ratio of the Acceptor and Donor fluorescence. Inhibition constants are calculated via the Morrison equation.

[2] = molecular target: T2, Cyclin Dependent Kinase 2/Cyclin E1 (CDK2-cycE1) (Homo sapiens, UniProt P24941); assay: CDK2-cycE1 TR-FRET (LANCE) enzyme assay; type: biochemical; settings: for FS CDK1/CDK2 / FS CDK4/CDK2: fold selectivity; for increased fold-selectivity CDK4/CDK2 over Comparator C: (+) sign after FS CDK4/CDK2;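 for improvement in potency against CDK2 (Ki) over Comparator C: fold lower CDK2 Ki than comparator c (Ki 0.032 µM)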
T2 construct: purchased ProQinase 0050-0055-1
Method: as §1
(ii) CDK2-cycE1 TR-FRET (LANCE®)
as §2, with “anti-phospho-MBP.” for “anti-phospho-4E-BP1.”, “equation. Enzyme source of CDK2-cycE1 is ProQinase, catalog #: 0050-0055-1.” for “equation.”

[3] = molecular target: T3, Cyclin Dependent Kinase 4/Cyclin D3 (CDK4-cycD3) (Homo sapiens, UniProt P11802); assay: CDK4-cycD3 TR-FRET (LANCE) enzyme assay; type: biochemical; settings: for Ki: enzymatic assay
T3 construct: purchased Carna Biosciences 04-105
T3 sequence (P11802 whole entry): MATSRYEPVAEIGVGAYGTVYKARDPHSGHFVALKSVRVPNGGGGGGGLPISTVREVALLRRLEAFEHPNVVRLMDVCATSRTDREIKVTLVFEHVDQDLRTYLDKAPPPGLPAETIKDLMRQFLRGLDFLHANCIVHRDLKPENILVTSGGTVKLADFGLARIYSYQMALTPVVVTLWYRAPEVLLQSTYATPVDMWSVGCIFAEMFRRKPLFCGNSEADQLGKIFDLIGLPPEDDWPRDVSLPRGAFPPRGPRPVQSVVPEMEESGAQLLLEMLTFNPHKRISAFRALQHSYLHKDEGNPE
T3 sequence (P30281 whole entry partner): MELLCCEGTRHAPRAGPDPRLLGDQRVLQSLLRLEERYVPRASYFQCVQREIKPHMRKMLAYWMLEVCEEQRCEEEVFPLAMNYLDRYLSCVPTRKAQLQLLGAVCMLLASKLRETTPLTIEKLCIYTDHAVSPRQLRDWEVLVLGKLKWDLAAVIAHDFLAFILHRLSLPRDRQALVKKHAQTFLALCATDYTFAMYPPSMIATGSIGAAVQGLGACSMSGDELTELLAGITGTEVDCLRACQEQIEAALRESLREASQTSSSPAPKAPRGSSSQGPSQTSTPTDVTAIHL
Method: as §1
(iii) CDK4-cycD3 TR-FRET (LANCE®)
as §2

[4] = system: OVISE (JCRB1043, CCNE1-amplified); assay: OVISE EdU incorporation cell proliferation assay (CDK2-dependent); type: cell-based; settings: for IC50: cellular assay, read-out: CDK2 OVISE IC50; for FS SKOV-3/OVISE: fold selectivity; for increased fold-selectivity SKOV-3/OVISE over Comparator C: (+) sign after FS SKOV-3/OVISE; for improvement in CDK2 OVISE cell potency over Comparator C: in brackets after OVISE IC50, Comparator C 5.5 μM
Method: (§3) (i) OVISE and SKOV-3 EdU Incorporation Cell Proliferation Assays
(§4) Ovarian cancer cell proliferation is measured by incorporation of EdU (5-ethynyl-2′-deoxyuridine) into newly synthesized DNA. CDK2-dependent proliferation is determined using OVISE (JCRB1043, CCNE1-amplified) while CDK4/6-dependent effect is determined with SKOV-3 (ATCC HTB-77) which is not CCNE1-amplified.
(§5) Cells are plated in 384-well plates in RPMI medium supplemented with 10% FBS. Compounds are added at desired concentrations with a final DMSO content of 0.5%, and cells incubated at 37° C./5% CO2 for 16 hours. EdU (Life Technologies) is added to a final concentration of 0.5 μM and incubation continued for 8 hours, followed by fixation with 4% paraformaldehyde. […] Images are acquired using Yokogawa CQ1 imaging cytometer with a 10×objective. […] The IC50 for inhibition of cell division is determined by fitting the fraction of EdU-positive cells as a function of compound dose using a 4-parameter logistic model.

SKOV-3 (ATCC HTB-77) = assay: SKOV-3 EdU incorporation cell proliferation assay (CDK4/6-dependent); type: cell-based; settings: for IC50: Homo sapiens, cellular assay, read-out: CDK4/6 SKOV-3 IC50
Method: as §3, §4, §5

[5] = Table O, enzymatic assay, read-out: CDK2 Ki
[6] = Table O, enzymatic CDK1 Ki over CDK2 Ki
[7] = Table O, enzymatic CDK4 Ki over CDK2 Ki
[8] = Table Q, enzymatic assay, read-out: CDK2 Ki
[9] = Table O, cellular SKOV-3 IC50 over OVISE IC50
[10] = Table S, fold selectivity, enzymatic Ki ratio

T1 sequence (P06493 whole entry): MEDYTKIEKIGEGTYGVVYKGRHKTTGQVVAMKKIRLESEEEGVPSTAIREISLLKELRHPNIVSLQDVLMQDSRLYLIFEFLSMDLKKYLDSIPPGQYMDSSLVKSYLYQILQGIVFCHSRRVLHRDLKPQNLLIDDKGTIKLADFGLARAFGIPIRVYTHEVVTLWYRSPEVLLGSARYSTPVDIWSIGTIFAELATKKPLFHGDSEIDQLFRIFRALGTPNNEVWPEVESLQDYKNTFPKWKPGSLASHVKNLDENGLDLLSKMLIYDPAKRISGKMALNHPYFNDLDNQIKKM
T1 sequence (P20248 whole entry partner): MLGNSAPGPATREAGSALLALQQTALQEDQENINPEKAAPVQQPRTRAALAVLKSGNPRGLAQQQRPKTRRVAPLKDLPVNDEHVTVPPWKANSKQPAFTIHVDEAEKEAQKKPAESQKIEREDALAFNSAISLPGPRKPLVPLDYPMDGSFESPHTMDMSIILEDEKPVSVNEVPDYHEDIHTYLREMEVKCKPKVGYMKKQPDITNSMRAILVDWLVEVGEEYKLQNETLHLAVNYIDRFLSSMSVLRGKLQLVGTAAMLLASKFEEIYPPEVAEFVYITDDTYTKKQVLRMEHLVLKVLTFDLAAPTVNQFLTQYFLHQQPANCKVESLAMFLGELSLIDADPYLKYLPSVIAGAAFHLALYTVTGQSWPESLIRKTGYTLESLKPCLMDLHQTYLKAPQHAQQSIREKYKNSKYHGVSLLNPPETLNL

CC(C)NC(=O)O[C@@H]1CC[C@H](c2cc(Nc3cncc(N(C)C)n3)n[nH]2)C1 [Example 2P, (1R,3S)-3-(3-((6-(dimethylamino)pyrazin-2-yl)amino)-1H-pyrazol-5-yl)cyclopentyl isopropylcarbamate]
Ki ([1]; Table O): 33 nM
improvement in potency against CDK2 (Ki) over Comparator C [2]: 8 fold
Ki [2, 5]: 4.2 nM
FS CDK1/CDK2 [2, 6]: 7.9
FS CDK4/CDK2 [2, 7]: 43
increased fold-selectivity CDK4/CDK2 over Comparator C ([2]; Table Q): (+) (The (+) sign in Table Q signifies desirable increased fold-selectivity of the exemplary compounds over Comparator C)
Ki [2, 8]: 4.2 nM
FS CDK1/CDK2 ([2]; Table Q, enzymatic): 7.9
FS CDK4/CDK2 ([2]; Table Q, enzymatic): 43
Ki ([3]; Table O): 180 nM
IC50 ([4]; Table O): 370 nM
FS SKOV-3/OVISE [4, 9]: 14
increased fold-selectivity SKOV-3/OVISE over Comparator C ([4]; Table Q): (+) (The (+) sign in Table Q signifies desirable increased fold-selectivity of the exemplary compounds over Comparator C)
FS SKOV-3/OVISE ([4]; Table Q, cellular): 14
improvement in CDK2 OVISE cell potency over Comparator C ([4]; Table Q): 14.9 fold
IC50 (SKOV-3 (ATCC HTB-77); SK-OV-3, Table O): 5300 nM
IC50 (SKOV-3 (ATCC HTB-77); SK-OV-3, Table Q): 5300 nM

COc1ncc(Nc2cc([C@H]3CC[C@@H](OC(=O)NC(C)C)C3)[nH]n2)c(C)n1 [Example 2X, (1R,3S)-3-(3-((2-methoxy-4-methylpyrimidin-5-yl)amino)-1H-pyrazol-5-yl)cyclopenty1 isopropylcarbamate]
Ki ([1]; Table O): 1200 nM
improvement in potency against CDK2 (Ki) over Comparator C [2]: 0.5 fold
Ki [2, 5]: 59 nM
FS CDK1/CDK2 [2, 6]: 20
FS CDK4/CDK2 [2, 7]: 64
increased fold-selectivity CDK4/CDK2 over Comparator C ([2]; Table Q): (+) (The (+) sign in Table Q signifies desirable increased fold-selectivity of the exemplary compounds over Comparator C)
Ki [2, 8]: 59 nM
FS CDK1/CDK2 ([2]; Table Q, enzymatic): 20
FS CDK4/CDK2 ([2]; Table Q, enzymatic): 64
Ki ([3]; Table O): 3800 nM
IC50 ([4]; Table O): 2800 nM
FS SKOV-3/OVISE [4, 9]: >7.1
increased fold-selectivity SKOV-3/OVISE over Comparator C ([4]; Table Q): (+) (The (+) sign in Table Q signifies desirable increased fold-selectivity of the exemplary compounds over Comparator C)
FS SKOV-3/OVISE ([4]; Table Q, cellular): > 7.1
improvement in CDK2 OVISE cell potency over Comparator C ([4]; Table Q): 2 fold
IC50 (SKOV-3 (ATCC HTB-77); SK-OV-3, Table O): > 20000 nM
IC50 (SKOV-3 (ATCC HTB-77); SK-OV-3, Table Q): > 20000 nM

CC[C@@H](C)NC(=O)O[C@@H]1CC[C@H](c2cc(Nc3cccnn3)n[nH]2)C1 (single isomer, unassigned) [Example 3C]
Ki ([1]; Table O): 500 nM
Ki [2, 5]: 18 nM
FS CDK1/CDK2 [2, 6]: 28
FS CDK4/CDK2 [2, 7]: 24
Ki ([3]; Table O): 430 nM
IC50 ([4]; Table O): 390 nM
FS SKOV-3/OVISE [4, 9]: 31
IC50 (SKOV-3 (ATCC HTB-77); SK-OV-3, Table O): 12000 nM

CNC(=O)c1ncc(Nc2cc([C@H]3CC[C@@H](OC(=O)NC45CC(C4)C5)C3)[nH]n2)c(C)n1 [Example 9F, (1R,3S)-3-(3-((4-methyl-2-(methylcarbamoyl)pyrimidin-5-yl)amino)-1H-pyrazol-5-yl)cyclopentyl bicyclo[1.1.1]pentan-1-ylcarbamate]
Ki ([1]; Table O): 80 nM
Ki [2, 5]: 5 nM
FS CDK1/CDK2 [2, 6]: 16
FS CDK4/CDK2 [2, 7]: 92
Ki ([3]; Table O): 460 nM
IC50 ([4]; Table O): 1200 nM
FS SKOV-3/OVISE [4, 9]: >17
IC50 (SKOV-3 (ATCC HTB-77); SK-OV-3, Table O): > 20000 nM

Cc1cc(Nc2cc([C@H]3CC[C@@H](OC(=O)NC45CC(C4)C5)C3)[nH]n2)c(C)nn1 [Example 9D, (1R,3S)-3-(3-((3,6-dimethylpyridazin-4-yl)amino)-1H-pyrazol-5-yl)cyclopentyl bicyclo[1.1.1]pentan-1-ylcarbamate]
Ki ([1]; Table O): 340 nM
Ki [2, 5]: 12 nM
FS CDK1/CDK2 [2, 6]: 28
FS CDK4/CDK2 [2, 7]: 500
Ki ([3]; Table O): 6000 nM
IC50 ([4]; Table O): 5000 nM
FS SKOV-3/OVISE [4, 9]: >4
IC50 (SKOV-3 (ATCC HTB-77); SK-OV-3, Table O): > 20000 nM

COCCn1nc(Nc2cc([C@H]3CC[C@@H](OC(=O)NC(C)C)C3)[nH]n2)ccc1=O [Example 2II, (1R,3S)-3-(3-((1-(2-methoxyethyl)-6-oxo-1,6-dihydropyridazin-3-y1)amino)-1H-pyrazol-5-y1)cyclopentyl isopropylcarbamate]
Ki ([1]; Table O): 110 nM
Ki [2, 5]: 9.6 nM
FS CDK1/CDK2 [2, 6]: 11
FS CDK4/CDK2 [2, 7]: 99
Ki ([3]; Table O): 950 nM
IC50 ([4]; Table O): 2600 nM
FS SKOV-3/OVISE [4, 9]: >7.7
IC50 (SKOV-3 (ATCC HTB-77); SK-OV-3, Table O): > 20000 nM

CC1(NC(=O)O[C@@H]2CC[C@H](c3cc(Nc4cccnn4)n[nH]3)C2)COC1 [Example 3G, (1R,3S)-3-(3-(pyridazin-3-ylamino)-1H-pyrazol-5-yl)cyclopentyl (3-methyloxetan-3-yl)carbamate]
Ki ([1]; Table O): 240 nM
Ki [2, 5]: 8.3 nM
FS CDK1/CDK2 [2, 6]: 29
FS CDK4/CDK2 [2, 7]: 88
Ki ([3]; Table O): 730 nM
IC50 ([4]; Table O): 750 nM
FS SKOV-3/OVISE [4, 9]: >27
IC50 (SKOV-3 (ATCC HTB-77); SK-OV-3, Table O): > 20000 nM

COc1nc(C)ncc1Nc1cc([C@H]2CC[C@@H](OC(=O)NC(C)C)C2)[nH]n1 [Example 2Y, (1R,3S)-3-(3-((4-methoxy-2-methylpyrimidin-5-yl)amino)-1H-pyrazol-5-yl)cyclopentyl isopropylcarbamate]
Ki ([1]; Table O): 7500 nM
improvement in potency against CDK2 (Ki) over Comparator C [2]: 0.15 fold
Ki [2, 5]: 210 nM
FS CDK1/CDK2 [2, 6]: 36
FS CDK4/CDK2 [2, 7]: 230
increased fold-selectivity CDK4/CDK2 over Comparator C ([2]; Table Q): (+) (The (+) sign in Table Q signifies desirable increased fold-selectivity of the exemplary compounds over Comparator C)
Ki [2, 8]: 210 nM
FS CDK1/CDK2 ([2]; Table Q, enzymatic): 36
FS CDK4/CDK2 ([2]; Table Q, enzymatic): 230
Ki ([3]; Table O): 49000 nM
IC50 ([4]; Table O): 16000 nM
FS SKOV-3/OVISE [4, 9]: >1.3
FS SKOV-3/OVISE ([4]; Table Q, cellular): >1.3
improvement in CDK2 OVISE cell potency over Comparator C ([4]; Table Q): 0.18 fold
IC50 (SKOV-3 (ATCC HTB-77); SK-OV-3, Table O): > 20000 nM
IC50 (SKOV-3 (ATCC HTB-77); SK-OV-3, Table Q): > 20000 nM

CC(C)(C)NC(=O)O[C@@H]1CC[C@H](c2cc(Nc3ccccc3)n[nH]2)C1 [Comparator E, (1R,3S)-3-(3-(phenylamino)-1H-pyrazol-5-yl)cyclopentyl tert-butylcarbamate, reference compound]
Ki ([1]; Table S): 33 nM
FS CDK1/CDK2 [1, 10]: 63
Ki ([2]; Table S, enzymatic assay, read-out: CDK2 Ki): 0.52 nM
Ki ([2]; read-out: CDK2 activity / potency (enzymatic assay)): 0.52 nM
Ki ([3]; Table S): 23 nM
FS CDK4/CDK2 [3, 10]: 44
IC50 ([4]; Table S): 170 nM
IC50 (SKOV-3 (ATCC HTB-77); SK-OV-3, Table S): 2700 nM
FS SKOV-3/OVISE (SKOV-3 (ATCC HTB-77); Table S, fold selectivity, cellular IC50 ratio): 16

Cc1ncccc1Nc1cc([C@H]2CC[C@@H](OC(=O)NC3CC(O)C3)C2)[nH]n1 (stereo partly drawn) [Example 7D, (1R,3S)-3-(3-((2-methylpyridin-3-yl)amino)-1H-pyrazol-5-yl)cyclopentyl ((1s,3s)-3-hydroxycyclobutyl)carbamate]
Ki ([1]; Table O): 370 nM
Ki [2, 5]: 23 nM
FS CDK1/CDK2 [2, 6]: 16
FS CDK4/CDK2 [2, 7]: 52
Ki ([3]; Table O): 1200 nM
IC50 ([4]; Table O): 1600 nM
FS SKOV-3/OVISE [4, 9]: >13
IC50 (SKOV-3 (ATCC HTB-77); SK-OV-3, Table O): > 20000 nM

O=C(NC1CCOCC1)O[C@@H]1CC[C@H](c2cc(Nc3cccnn3)n[nH]2)C1 [Example 3D, (1R,3S)-3-(3-(pyridazin-3-ylamino)-1H-pyrazol-5-yl)cyclopentyl (tetrahydro-2H-pyran-4-yl)carbamate]
Ki ([1]; Table O): 1400 nM
Ki [2, 5]: 61 nM
FS CDK1/CDK2 [2, 6]: 23
FS CDK4/CDK2 [2, 7]: 38
Ki ([3]; Table O): 2300 nM
IC50 ([4]; Table O): 7900 nM
FS SKOV-3/OVISE [4, 9]: >2.5
IC50 (SKOV-3 (ATCC HTB-77); SK-OV-3, Table O): > 20000 nM
